# Test results reported in patent US12383545B1, “Treatment of migraine” (priority 2018, dated 2025).
# Experiments:
# [1] = tested on: ALT or AST; experiment: Example 5: postbaseline hepatic laboratory parameter values of clinical interest; type: in vivo, human; settings: safety population; for Participants with Concurrent Elevations ALT or AST >=3 * ULN AND Bilirubin Total >=1.5 * ULN, n/N1 / Participants with Concurrent Elevations ALT or AST >=3 * ULN AND Bilirubin Total >=2 * ULN, n/N1 / Participants with Potential Hy's Law ALT or AST >=3 * ULN AND Bilirubin Total >=2 * ULN AND ALP <2 * ULN, n/N1: same day
# Protocol: In a multicenter, randomized, double-blind, placebo-controlled, parallel-group study designed to evaluate the efficacy, safety, and tolerability of multiple doses and doses regimens of atogepant for the prevention of migraine. The patients were randomized (2:1:2:1:2:1) to 1 of 6 treatment groups: placebo, atogepant 10 mg QD, atogepant 30 mg QD, atogepant 30 mg BID, atogepant 60 mg QD, and atogepant 60 mg BID.
# (§1) A total of 834 patients were randomized to double-blind treatment (ITT population), and 825 patients took at least 1 dose of double-blind IP (safety population). […] The primary efficacy variable was the change from baseline in mean monthly migraine/probable migraine headache days across the 12-week treatment period. The secondary efficacy variables were the change from baseline in mean monthly headache days across the 12-week treatment period, proportion of patients with at least a 50% reduction in mean monthly migraine/probable migraine headache days across the 12-week treatment period, and the change from baseline in mean monthly acute medication use days across the 12-week treatment period.
# [2] = tested on: Alkaline Phosphatase; experiment: Example 5: postbaseline hepatic laboratory parameter values of clinical interest, Alkaline Phosphatase; type: in vivo, human; settings: safety population
# Source text: This study consisted of a 4-week screening and baseline period and a 12-week double-blind treatment period, which was followed by a 4-week safety follow-up period. Total study duration is 20-weeks.
# To be randomized, eligible patients had to be 18 to 75 years of age (inclusive), have a history of migraine with or without aura for at least 1 year consistent with a diagnosis according to the International Classification of Headache Disorders criteria, 3rd edition, beta version, have experienced 4 to 14 migraine/probable migraine headache days and <15 headache days in the 28-day baseline period. Patients who had clinically significant hematologic, endocrine, cardiovascular, cerebrovascular, pulmonary, renal, hepatic, gastrointestinal, or neurologic disease were excluded from the study.
# as §1
smiles,measurement,setting,value
C[C@@H]1[C@H](c2c(F)ccc(F)c2F)C[C@H](NC(=O)c2cnc3c(c2)C[C@@]2(C3)C(=O)Nc3ncccc32)C(=O)N1CC(F)(F)F [atogepant],"Participants with postbaseline ALT or AST (U/L) >=3 * ULN, n/N1",[1]; Atogepant 60 mg BID (N = 91),1/88
same,"Participants with postbaseline ALT or AST (U/L) >=5 * ULN, n/N1",[1]; Atogepant 60 mg BID (N = 91),0
same,"Participants with postbaseline ALT or AST (U/L) >=10 * ULN, n/N1",[1]; Atogepant 60 mg BID (N = 91),0
same,"Participants with postbaseline ALT or AST (U/L) >=20 * ULN, n/N1",[1]; Atogepant 60 mg BID (N = 91),0
same,"Participants with Concurrent Elevations ALT or AST >=3 * ULN AND Bilirubin Total >=1.5 * ULN, n/N1",[1]; Atogepant 60 mg BID (N = 91),0
same,"Participants with Concurrent Elevations ALT or AST >=3 * ULN AND Bilirubin Total >=2 * ULN, n/N1",[1]; Atogepant 60 mg BID (N = 91),0
same,"Participants with Potential Hy's Law ALT or AST >=3 * ULN AND Bilirubin Total >=2 * ULN AND ALP <2 * ULN, n/N1",[1]; Atogepant 60 mg BID (N = 91),0
same,"Participants with postbaseline ALT or AST (U/L) >=1 * ULN, (%)",[1]; Atogepant 60 mg QD (N = 186),(13.8) %
same,"Participants with postbaseline ALT or AST (U/L) >=1 * ULN, n/N1",[1]; Atogepant 60 mg QD (N = 186),25/181
same,"Participants with postbaseline ALT or AST (U/L) >=1.5 * ULN, (%)",[1]; Atogepant 60 mg QD (N = 186),(4.4) %
same,"Participants with postbaseline ALT or AST (U/L) >=1.5 * ULN, n/N1",[1]; Atogepant 60 mg QD (N = 186),8/181
same,"Participants with postbaseline ALT or AST (U/L) >=2 * ULN, (%)",[1]; Atogepant 60 mg QD (N = 186),(2.8) %
same,"Participants with postbaseline ALT or AST (U/L) >=2 * ULN, n/N1",[1]; Atogepant 60 mg QD (N = 186),5/181
same,"Participants with postbaseline ALT or AST (U/L) >=3 * ULN, (%)",[1]; Atogepant 60 mg QD (N = 186),(1.7) %
same,"Participants with postbaseline ALT or AST (U/L) >=3 * ULN, n/N1",[1]; Atogepant 60 mg QD (N = 186),3/181
same,"Participants with postbaseline ALT or AST (U/L) >=5 * ULN, (%)",[1]; Atogepant 60 mg QD (N = 186),(0.6) %
same,"Participants with postbaseline ALT or AST (U/L) >=5 * ULN, n/N1",[1]; Atogepant 60 mg QD (N = 186),1/181
same,"Participants with postbaseline ALT or AST (U/L) >=10 * ULN, n/N1",[1]; Atogepant 60 mg QD (N = 186),0
same,"Participants with postbaseline ALT or AST (U/L) >=20 * ULN, n/N1",[1]; Atogepant 60 mg QD (N = 186),0
same,"Participants with Concurrent Elevations ALT or AST >=3 * ULN AND Bilirubin Total >=1.5 * ULN, n/N1",[1]; Atogepant 60 mg QD (N = 186),0
same,"Participants with Concurrent Elevations ALT or AST >=3 * ULN AND Bilirubin Total >=2 * ULN, n/N1",[1]; Atogepant 60 mg QD (N = 186),0
same,"Participants with Potential Hy's Law ALT or AST >=3 * ULN AND Bilirubin Total >=2 * ULN AND ALP <2 * ULN, n/N1",[1]; Atogepant 60 mg QD (N = 186),0
same,"Participants with postbaseline Alkaline Phosphatase (U/L) >=1 * ULN, (%)",[2]; Atogepant 10 mg QD (N = 93),(5.4) %
same,"Participants with postbaseline Alkaline Phosphatase (U/L) >=1 * ULN, n/N1",[2]; Atogepant 10 mg QD (N = 93),5/92
same,"Participants with postbaseline Alkaline Phosphatase (U/L) >=1.5 * ULN, (%)",[2]; Atogepant 10 mg QD (N = 93),(1.1) %
same,"Participants with postbaseline Alkaline Phosphatase (U/L) >=1.5 * ULN, n/N1",[2]; Atogepant 10 mg QD (N = 93),1/92
same,"Participants with postbaseline Alkaline Phosphatase (U/L) >=2 * ULN, (%)",[2]; Atogepant 10 mg QD (N = 93),(1.1) %
same,"Participants with postbaseline Alkaline Phosphatase (U/L) >=2 * ULN, n/N1",[2]; Atogepant 10 mg QD (N = 93),1/92
same,"Participants with postbaseline Alkaline Phosphatase (U/L) >=3 * ULN, n/N1",[2]; Atogepant 10 mg QD (N = 93),0
same,"Participants with postbaseline Alkaline Phosphatase (U/L) >=5 * ULN, n/N1",[2]; Atogepant 10 mg QD (N = 93),0
same,"Participants with postbaseline Alkaline Phosphatase (U/L) >=10 * ULN, n/N1",[2]; Atogepant 10 mg QD (N = 93),0
same,"Participants with postbaseline Alkaline Phosphatase (U/L) >=20 * ULN, n/N1",[2]; Atogepant 10 mg QD (N = 93),0
same,"Participants with postbaseline Alkaline Phosphatase (U/L) >=1 * ULN, (%)",[2]; Atogepant 30 mg BID (N = 86),(2.4) %
same,"Participants with postbaseline Alkaline Phosphatase (U/L) >=1 * ULN, n/N1",[2]; Atogepant 30 mg BID (N = 86),2/84
same,"Participants with postbaseline Alkaline Phosphatase (U/L) >=1.5 * ULN, n/N1",[2]; Atogepant 30 mg BID (N = 86),0
same,"Participants with postbaseline Alkaline Phosphatase (U/L) >=2 * ULN, n/N1",[2]; Atogepant 30 mg BID (N = 86),0
same,"Participants with postbaseline Alkaline Phosphatase (U/L) >=3 * ULN, n/N1",[2]; Atogepant 30 mg BID (N = 86),0
same,"Participants with postbaseline Alkaline Phosphatase (U/L) >=5 * ULN, n/N1",[2]; Atogepant 30 mg BID (N = 86),0
same,"Participants with postbaseline Alkaline Phosphatase (U/L) >=10 * ULN, n/N1",[2]; Atogepant 30 mg BID (N = 86),0
same,"Participants with postbaseline Alkaline Phosphatase (U/L) >=20 * ULN, n/N1",[2]; Atogepant 30 mg BID (N = 86),0
same,"Participants with postbaseline Alkaline Phosphatase (U/L) >=1 * ULN, (%)",[2]; Atogepant 30 mg QD (N = 183),(10.6) %
same,"Participants with postbaseline Alkaline Phosphatase (U/L) >=1 * ULN, n/N1",[2]; Atogepant 30 mg QD (N = 183),19/179
same,"Participants with postbaseline Alkaline Phosphatase (U/L) >=1.5 * ULN, (%)",[2]; Atogepant 30 mg QD (N = 183),(0.6) %
same,"Participants with postbaseline Alkaline Phosphatase (U/L) >=1.5 * ULN, n/N1",[2]; Atogepant 30 mg QD (N = 183),1/179
same,"Participants with postbaseline Alkaline Phosphatase (U/L) >=2 * ULN, n/N1",[2]; Atogepant 30 mg QD (N = 183),0
same,"Participants with postbaseline Alkaline Phosphatase (U/L) >=3 * ULN, n/N1",[2]; Atogepant 30 mg QD (N = 183),0
same,"Participants with postbaseline Alkaline Phosphatase (U/L) >=5 * ULN, n/N1",[2]; Atogepant 30 mg QD (N = 183),0
same,"Participants with postbaseline Alkaline Phosphatase (U/L) >=10 * ULN, n/N1",[2]; Atogepant 30 mg QD (N = 183),0
same,"Participants with postbaseline Alkaline Phosphatase (U/L) >=20 * ULN, n/N1",[2]; Atogepant 30 mg QD (N = 183),0
same,"Participants with postbaseline Alkaline Phosphatase (U/L) >=1 * ULN, (%)",[2]; Atogepant 60 mg BID (N = 91),(3.4) %
same,"Participants with postbaseline Alkaline Phosphatase (U/L) >=1 * ULN, n/N1",[2]; Atogepant 60 mg BID (N = 91),3/88
same,"Participants with postbaseline Alkaline Phosphatase (U/L) >=1.5 * ULN, n/N1",[2]; Atogepant 60 mg BID (N = 91),0
same,"Participants with postbaseline Alkaline Phosphatase (U/L) >=2 * ULN, n/N1",[2]; Atogepant 60 mg BID (N = 91),0
same,"Participants with postbaseline Alkaline Phosphatase (U/L) >=3 * ULN, n/N1",[2]; Atogepant 60 mg BID (N = 91),0
same,"Participants with postbaseline Alkaline Phosphatase (U/L) >=5 * ULN, n/N1",[2]; Atogepant 60 mg BID (N = 91),0
same,"Participants with postbaseline Alkaline Phosphatase (U/L) >=10 * ULN, n/N1",[2]; Atogepant 60 mg BID (N = 91),0
same,"Participants with postbaseline Alkaline Phosphatase (U/L) >=20 * ULN, n/N1",[2]; Atogepant 60 mg BID (N = 91),0
same,"Participants with postbaseline Alkaline Phosphatase (U/L) >=1 * ULN, (%)",[2]; Atogepant 60 mg QD (N = 186),(6.6) %
same,"Participants with postbaseline Alkaline Phosphatase (U/L) >=1 * ULN, n/N1",[2]; Atogepant 60 mg QD (N = 186),12/181
same,"Participants with postbaseline Alkaline Phosphatase (U/L) >=1.5 * ULN, n/N1",[2]; Atogepant 60 mg QD (N = 186),0
same,"Participants with postbaseline Alkaline Phosphatase (U/L) >=2 * ULN, n/N1",[2]; Atogepant 60 mg QD (N = 186),0
same,"Participants with postbaseline Alkaline Phosphatase (U/L) >=3 * ULN, n/N1",[2]; Atogepant 60 mg QD (N = 186),0
same,"Participants with postbaseline Alkaline Phosphatase (U/L) >=5 * ULN, n/N1",[2]; Atogepant 60 mg QD (N = 186),0
same,"Participants with postbaseline Alkaline Phosphatase (U/L) >=10 * ULN, n/N1",[2]; Atogepant 60 mg QD (N = 186),0
same,"Participants with postbaseline Alkaline Phosphatase (U/L) >=20 * ULN, n/N1",[2]; Atogepant 60 mg QD (N = 186),0
